Measured values: patent US20240345082A1, “IDENTIFICATION AND APPLICATION OF SELECTIVE CELL SURFACE MARKERS AND ADDITIONAL METHODS FOR HUMAN RED/GREEN CONE PHOTORECEPTOR PRECURSOR ENRICHMENT” (Wisconsin Alumni Research Foundation, priority 2023, published 2024)

Tests used:
CPP microaggregates [1] = test: Flow cytometric quantification of THRB2:tdTomato-positive red/green CPP cells in CPP microaggregates; format: cell-based, human; conditions: CPP microaggregate formation combined with MMC treatment (250 ng/ml), 10 days post microaggregate formation; increased from 17% (unsorted CRR ROs at D60)
CPP microaggregates [2] = test: Ki-67 immunostaining (IHC) of MMC-treated ALCAM/CD166-sorted CPP microaggregates; conditions: for Ki-67 positive cells in CPP microaggregates: 7 dpt

## CO[C@@]12[C@H](COC(N)=O)C3=C(C(=O)C(C)=C(N)C3=O)N1C[C@@H]1N[C@@H]12 [MMC, mitomycin C]
CPP microaggregates [1]
  percentage of THRB2:tdTomato-positive red/green CPP cells: 89.5%
CPP microaggregates [2]; 100 ng/mL MMC
  Ki-67 positive cells in CPP microaggregates: few
CPP microaggregates [2]; 250 ng/mL MMC
  Ki-67 positive cells in CPP microaggregates: almost nil
CPP microaggregates [2]; 500 ng/mL MMC
  morphology of CPP microaggregates: noticeable disruption
  Ki-67 positive cells in CPP microaggregates: almost nil
